Data reported in ChEMBL document CHEMBL2401653, “Synthesis, structure-property relationships and pharmacokinetic evaluation of ethyl 6-aminonicotinate sulfonylureas as antagonists of the P2Y₁₂ receptor” (Eur J Med Chem, 2013).

Key:
P2Y purinoceptor 12 [1] = target: T1, P2Y purinoceptor 12 (Homo sapiens, UniProt Q9H244)
Description: Displacement of [125I]-AZ11931285 from P2Y12 receptor (unknown origin) after 1 hr by scintillation counting analysis

P2Y purinoceptor 12 [2] = target: T1, P2Y purinoceptor 12; remark: listed apart in the source
[3] = 1-octanol-phosphate buffer distribution coefficient, log D of the compound at pH 7.4 after 2 days by shake flask method; type: physicochemical
Liver microsomes [4] = test: Intrinsic clearance in rat liver microsomes at 1 umol/L by LC/MS analysis in presence of NADPH; type: ADME, Microsome; details: 1 µM
Liver microsomes [5] = test: Intrinsic clearance in human liver microsomes at 1 umol/L by LC/MS analysis in presence of NADPH; type: ADME, Microsome; details: 1 µM
[6] = Apparent Permeability across apical to basolateral side in human Caco2 cells at 1 to 10 uM measured at 30 to 90 mins by LC/MS analysis; type: ADME, cell-based; details: Caco-2
[7] = Stability of the compound in MeCN assessed as compound remaining at room temperature; type: physicochemical

T1 sequence (Q9H244 whole entry): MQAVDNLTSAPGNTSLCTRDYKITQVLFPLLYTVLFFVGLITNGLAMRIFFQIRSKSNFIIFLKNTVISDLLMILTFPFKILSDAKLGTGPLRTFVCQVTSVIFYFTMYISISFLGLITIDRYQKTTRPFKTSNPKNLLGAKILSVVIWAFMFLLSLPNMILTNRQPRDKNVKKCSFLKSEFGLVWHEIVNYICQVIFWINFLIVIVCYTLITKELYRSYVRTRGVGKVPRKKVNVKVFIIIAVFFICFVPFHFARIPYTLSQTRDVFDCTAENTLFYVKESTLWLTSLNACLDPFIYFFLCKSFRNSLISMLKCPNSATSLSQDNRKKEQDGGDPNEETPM

Row | Compound | IC50 (P2Y purinoceptor 12 [1]) | IC50 (P2Y purinoceptor 12 [2]) | logD at 48 h [3] | Intrinsic clearance (Liver microsomes [4]) | Intrinsic clearance (CLint) (Liver microsomes [5]) | Papp A→B at up to 10 µM [6] | Stability [7]
1 | CCOC(=O)c1cc(C#N)c(N2CCC(NC(=O)NS(=O)(=O)c3ccc(Cl)cc3)CC2)nc1C | 190 nM | 260 nM | 2.1 | > 104 µL/min/mg | > 70 µL/min/mg | 19 ×10⁻⁶ cm/s | Stable
2 | CCOC(=O)c1cnc(N2CCN(C(=O)NS(=O)(=O)c3ccc(F)cc3)CC2)c(Cl)c1 | 370 nM | 470 nM | 0.6 | > 104 µL/min/mg | > 70 µL/min/mg | 0.54 ×10⁻⁶ cm/s | Stable
3 | CCOC(=O)c1cc(C#N)c(N2CCC(NC(=O)NS(=O)(=O)Cc3ccccc3)CC2)nc1C | 88 nM | 150 nM | 1.9 | > 104 µL/min/mg | – | 30 ×10⁻⁶ cm/s | Stable
4 | CCOC(=O)c1cc(C#N)c(N2C[C@@H]3C[C@H]2CN3C(=O)NS(=O)(=O)c2ccc(Cl)s2)nc1C | 2900 nM | 690 nM | – | – | – | – | Stable
5 | CCOC(=O)c1cc(C#N)c(N2CCN(C(=O)NCc3ccc(F)cc3)CC2)nc1C(F)(F)F | – | – | 5 | – | – | – | Stable
6 | CCCOC(=O)c1cnc(N2CCN(C(=O)NS(=O)(=O)c3ccc(Cl)s3)CC2)c(Cl)c1 | 210 nM | 240 nM | 1.6 | – | – | – | Stable
7 | CCOC(=O)c1cnc(N2CCN(C(=O)Nc3ccccc3)CC2)c(Cl)c1 | – | – | – | – | – | – | Stable
8 | CCOC(=O)c1cc(C#N)c(N2CCN(C(=O)NS(=O)(=O)c3ccccc3Cl)CC2)nc1C(F)(F)F | 690 nM | 470 nM | – | – | – | – | Stable
9 | CCCC(=O)c1cnc(N2CCN(C(=O)NS(=O)(=O)c3ccc(Cl)s3)CC2)c(Cl)c1 | 560 nM | 890 nM | 1.3 | > 104 µL/min/mg | – | 0.16 ×10⁻⁶ cm/s | Stable
10 | CCOC(=O)c1cnc(N2CCN(C(=O)NC(=O)c3ccccc3)CC2)c(Cl)c1 | 9900 nM | 5300 nM | – | – | – | – | Stable
11 | CCOC(=O)c1cnc(N2CCN(C(=O)Nc3ccccc3)CC2)c(C#N)c1 | – | – | 3.7 | – | – | – | Stable
12 | CCOC(=O)c1cc(C#N)c(N2CCC(NC(=O)NS(=O)(=O)c3ccc(Cl)s3)CC2)nc1C | 27 nM | 57 nM | 1.6 | > 104 µL/min/mg | > 70 µL/min/mg | 6.9 ×10⁻⁶ cm/s | Stable
13 | CCOC(=O)c1cnc(N2CCN(C(=O)Nc3ccccc3C)CC2)c(Cl)c1 | – | – | – | – | – | – | Stable
14 | CCOC(=O)c1cnc(N2CCN(C(=O)Nc3ccc(C)cc3)CC2)c(Cl)c1 | – | – | – | – | – | – | Stable
15 | COC(=O)c1cnc(N2CCN(C(=O)NS(=O)(=O)c3ccc(Cl)s3)CC2)c(Cl)c1 | 650 nM | 3200 nM | 0.9 | – | – | – | Stable
16 | CC(C)OC(=O)c1cnc(N2CCN(C(=O)NS(=O)(=O)c3ccc(Cl)s3)CC2)c(Cl)c1 | 250 nM | 530 nM | 1.5 | > 104 µL/min/mg | > 70 µL/min/mg | – | Stable
17 | CCOC(=O)c1ccc(N2CCN(C(=O)NS(=O)(=O)c3ccc(Cl)s3)CC2)c(Cl)c1 | 660 nM | 1800 nM | 1.5 | > 104 µL/min/mg | – | – | Stable

Row | Compound | IC50 (P2Y purinoceptor 12 [1]) | IC50 (P2Y purinoceptor 12 [2]) | logD at 48 h [3] | Intrinsic clearance (Liver microsomes [4]) | Intrinsic clearance (CLint) (Liver microsomes [5]) | Papp A→B at up to 10 µM [6] | Stability [7]
18 | CCOC(=O)c1cc(C#N)c(N2CCN(C(=O)NS(=O)(=O)c3ccccc3C)CC2)nc1C(F)(F)F | 430 nM | 380 nM | – | – | – | – | Stable
19 | CCOC(=O)c1cc(C#N)c(N2CC(NC(=O)NS(=O)(=O)c3ccc(Cl)cc3)C2)nc1C | 86 nM | 78 nM | 1.1 | – | < 13 µL/min/mg | 1.2 ×10⁻⁶ cm/s | Stable
20 | CCOC(=O)c1cc(C#N)c(N2CCN(C(=O)NS(=O)(=O)c3ccc(F)cc3)CC2)nc1C(F)(F)F | 230 nM | 210 nM | 0.4 | > 104 µL/min/mg | – | 0.053 ×10⁻⁶ cm/s | Stable
21 | C=C(NC(=O)N1CCN(c2ncc(C(=O)OCC)cc2Cl)CC1)c1ccccc1 | 2400 nM | 1700 nM | – | – | – | – | Stable
22 | CCOC(=O)c1cnc(N2CCN(C(=S)NC(=O)c3ccccc3)CC2)c(Cl)c1 | 2400 nM | 990 nM | – | – | – | – | Stable
23 | CCOC(=O)c1cnc(N2CCN(C(=O)NS(=O)(=O)c3ccccc3Cl)CC2)c(Cl)c1 | 870 nM | 990 nM | 0.6 | – | – | – | Stable
24 | O=C(c1cnc(N2CCN(C(=O)NS(=O)(=O)c3ccc(Cl)s3)CC2)c(Cl)c1)C1CC1 | 420 nM | 1300 nM | 1.2 | < 19 µL/min/mg | < 13 µL/min/mg | 0.12 ×10⁻⁶ cm/s | Stable
25 | CCCS(=O)(=O)c1cnc(N2CCN(C(=O)NS(=O)(=O)c3ccc(Cl)s3)CC2)c(Cl)c1 | 9300 nM | 14000 nM | – | – | – | – | Stable
26 | CCOC(=O)c1cc(C#N)c(N2CCCN(C(=O)NS(=O)(=O)c3ccc(Cl)s3)CC2)nc1C | 630 nM | 240 nM | 0.9 | – | – | – | Stable
27 | CCOC(=O)c1cc(C#N)c(N2CCN(C(=O)NS(=O)(=O)c3ccc(Cl)cc3)CC2)nc1C(F)(F)F | 68 nM | 97 nM | – | > 104 µL/min/mg | > 70 µL/min/mg | 0.13 ×10⁻⁶ cm/s | Stable
28 | CCCCOC(=O)c1cnc(N2CCN(C(=O)NS(=O)(=O)c3ccc(Cl)s3)CC2)c(Cl)c1 | 95 nM | 150 nM | 2.3 | – | > 70 µL/min/mg | 0.5 ×10⁻⁶ cm/s | Stable
29 | O=C(O)c1cnc(N2CCN(C(=O)NS(=O)(=O)c3ccccc3)CC2)c(Cl)c1 | > 33000 nM | – | < 0.5 | – | – | – | Stable
30 | CCOC(=O)c1cc(C#N)c(N2CCN(C(=O)NS(=O)(=O)Cc3ccccc3)CC2)nc1C | 33 nM | 54 nM | 0.9 | > 104 µL/min/mg | < 13 µL/min/mg | 0.37 ×10⁻⁶ cm/s | Stable
31 | CCOC(=O)c1cc(C#N)c(N2CC3CN(C(=O)NS(=O)(=O)c4ccccc4)CC3C2)nc1C (configuration not stated) | 240 nM | 580 nM | 0.4 | < 19 µL/min/mg | < 13 µL/min/mg | 0.39 ×10⁻⁶ cm/s | Stable
32 | CCOC(=O)c1cc(C#N)c(N2CCN(C(=O)NS(=O)(=O)c3ccc(Cl)s3)CC2C)nc1C (racemic) | 64 nM | 37 nM | 1.6 | > 104 µL/min/mg | > 70 µL/min/mg | 0.31 ×10⁻⁶ cm/s | Stable
33 | CCOC(=O)c1cnc(N2CCN(C(=S)Nc3ccccc3)CC2)c(Cl)c1 | 12000 nM | 3700 nM | – | – | – | – | Stable
34 | CC(C)CCOC(=O)c1cnc(N2CCN(C(=O)NS(=O)(=O)c3ccc(Cl)s3)CC2)c(Cl)c1 | 140 nM | 110 nM | 2.7 | – | > 70 µL/min/mg | 0.44 ×10⁻⁶ cm/s | Stable
